Measurements taken from ChEMBL document CHEMBL1255467, “Comparative in vitro antimicrobial activities of torezolid (TR-700), the active moiety of a new oxazolidinone, torezolid phosphate (TR-701), determination of tentative disk diffusion interpretive criteria, and quality control ranges” (2010).
≈ marks a conversion by molar mass, not a printed value.

How the values were obtained:
Enterococcus faecium [1] = test: Antimicrobial activity against vancomycin-resistant Enterococcus faecium by broth dilution method; assay type: functional
Staphylococcus sp. [2] = test: Antimicrobial activity against methicillin-susceptible coagulase-negative Staphylococcus by broth dilution method; assay type: functional
Enterococcus faecalis [3] = test: Antimicrobial activity against vancomycin-resistant Enterococcus faecalis by broth dilution method; assay type: functional
Streptococcus viridans = test: Antimicrobial activity against Streptococcus viridans by broth dilution method; assay type: functional
Enterococcus faecalis [4] = test: Antimicrobial activity against vancomycin-susceptible Enterococcus faecalis by broth dilution method; assay type: functional
Corynebacterium jeikeium = test: Antimicrobial activity against Corynebacterium jeikeium by broth dilution method; assay type: functional
Haemophilus influenzae [5] = test: Antimicrobial activity against beta-lactamase positive Haemophilus influenzae by broth dilution method; assay type: functional
Staphylococcus sp. [6] = test: Antimicrobial activity against Staphylococcus sp. by broth dilution method; assay type: functional
Staphylococcus aureus [7] = test: Antimicrobial activity against Staphylococcus aureus by broth dilution method; assay type: functional
Staphylococcus aureus [8] = test: Antimicrobial activity against methicillin-susceptible Staphylococcus aureus by broth dilution method; assay type: functional
Haemophilus influenzae [9] = test: Antimicrobial activity against ampicillin-nonsusceptible beta-lactamase negative Haemophilus influenzae by broth dilution method; assay type: functional
Staphylococcus aureus [10] = test: Antimicrobial activity against vancomycin-nonsusceptible Staphylococcus aureus by broth dilution method; assay type: functional
Haemophilus influenzae [11] = test: Antimicrobial activity against Haemophilus influenzae by broth dilution method; assay type: functional
Streptococcus pneumoniae [12] = test: Antimicrobial activity against penicillin-susceptible Streptococcus pneumoniae by broth dilution method; assay type: functional
Staphylococcus aureus [13] = test: Antimicrobial activity against methicillin-resistant Staphylococcus aureus by broth dilution method; assay type: functional
Staphylococcus aureus [14] = test: Antimicrobial activity against linezolid-resistant Staphylococcus aureus by broth dilution method; assay type: functional
Listeria monocytogenes = test: Antimicrobial activity against Listeria monocytogenes by broth dilution method; assay type: functional
Staphylococcus sp. [15] = test: Antimicrobial activity against methicillin-resistant coagulase-negative Staphylococcus by broth dilution method; assay type: functional
Moraxella catarrhalis = test: Antimicrobial activity against Moraxella catarrhalis by broth dilution method; assay type: functional
Streptococcus sp = test: Antimicrobial activity against streptococcal sp. by broth dilution method
Haemophilus influenzae [16] = test: Antimicrobial activity against beta-lactamase negative Haemophilus influenzae by broth dilution method; assay type: functional
Streptococcus pneumoniae [17] = test: Antimicrobial activity against penicillin-resistant Streptococcus pneumoniae by broth dilution method; assay type: functional
Streptococcus pneumoniae [18] = test: Antimicrobial activity against penicillin-intermediate Streptococcus pneumoniae by broth dilution method; assay type: functional
Enterococcus faecium [19] = test: Antimicrobial activity against vancomycin-susceptible Enterococcus faecium by broth dilution method; assay type: functional
Streptococcus pneumoniae [20] = test: Antimicrobial activity against Streptococcus pneumoniae by broth dilution method; assay type: functional
Enterococcus sp. = test: Antimicrobial activity against Enterococcus by broth dilution method; assay type: functional

## Cn1nnc(-c2ccc(-c3ccc(N4C[C@H](CO)OC4=O)cc3F)cn2)n1 [TEDIZOLID]
Enterococcus faecium [1]
  MBC: 1 µg/mL (≈ 2.7 µM)
  MIC50: 0.5 µg/mL (≈ 1.35 µM)
  MIC90: 0.5 µg/mL (≈ 1.35 µM)
Staphylococcus sp. [2]
  MBC50: 16 µg/mL (≈ 43.2 µM)
  MBC90: 32 µg/mL (≈ 86.4 µM)
Staphylococcus sp. [2]; Staphylococcus sp.
  MBC: > 2 µg/mL
  MIC50: 0.25 µg/mL (≈ 0.675 µM)
  MIC90: 0.5 µg/mL (≈ 1.35 µM)
Enterococcus faecalis [3]
  MBC: > 16 µg/mL
  MIC50: 0.5 µg/mL (≈ 1.35 µM)
  MIC90: 0.5 µg/mL (≈ 1.35 µM)
Streptococcus viridans
  MIC50: 0.25 µg/mL (≈ 0.675 µM)
  MIC90: 0.25 µg/mL (≈ 0.675 µM)
Enterococcus faecalis [4]
  MBC50: 32 µg/mL (≈ 86.4 µM)
  MBC90: 32 µg/mL (≈ 86.4 µM)
Enterococcus faecalis [4]; Enterococcus faecalis
  MBC: 16 µg/mL (≈ 43.2 µM)
  MIC50: 0.5 µg/mL (≈ 1.35 µM)
  MIC90: 0.5 µg/mL (≈ 1.35 µM)
Corynebacterium jeikeium
  MIC: 0.25 µg/mL (≈ 0.675 µM)
  MIC50: 0.25 µg/mL (≈ 0.675 µM)
  MIC90: 0.5 µg/mL (≈ 1.35 µM)
Haemophilus influenzae [5]
  MBC50: >32 µg/mL
  MIC90: >32 µg/mL
Haemophilus influenzae [5]; Haemophilus influenzae
  MBC: > 32 µg/mL
  MIC50: 8 µg/mL (≈ 21.6 µM)
Haemophilus influenzae [5]; Haemophilus influenzae, read-out: MIC90
  MIC90: 32 µg/mL (≈ 86.4 µM)
Staphylococcus sp. [6]
  MBC50: 8 µg/mL (≈ 21.6 µM)
  MBC90: 32 µg/mL (≈ 86.4 µM)
Staphylococcus sp. [6]; Staphylococcus sp.
  MBC: > 0.5 µg/mL
  MIC50: 0.25 µg/mL (≈ 0.675 µM)
  MIC90: 0.5 µg/mL (≈ 1.35 µM)
Staphylococcus aureus [7]
  MBC50: 4 µg/mL (≈ 10.8 µM)
  MBC90: 16 µg/mL (≈ 43.2 µM)
Staphylococcus aureus [7]; Staphylococcus aureus
  MBC: > 0.5 µg/mL
  MIC50: 0.5 µg/mL (≈ 1.35 µM)
  MIC90: 0.5 µg/mL (≈ 1.35 µM)
Staphylococcus aureus [8]
  MBC50: 16 µg/mL (≈ 43.2 µM)
  MBC90: 32 µg/mL (≈ 86.4 µM)
Staphylococcus aureus [8]; Staphylococcus aureus
  MBC: 1 µg/mL (≈ 2.7 µM)
  MIC: 0.25 µg/mL (≈ 0.675 µM)
  MIC50: 0.25 µg/mL (≈ 0.675 µM)
  MIC90: 0.5 µg/mL (≈ 1.35 µM)
Haemophilus influenzae [9]
  MBC50: >32 µg/mL
  MBC90: >32 µg/mL
Haemophilus influenzae [9]; Haemophilus influenzae
  MBC: > 8 µg/mL
  MIC50: 8 µg/mL (≈ 21.6 µM)
  MIC90: 16 µg/mL (≈ 43.2 µM)
Staphylococcus aureus [10]
  MBC50: 0.5 µg/mL (≈ 1.35 µM)
  MBC90: 1 µg/mL (≈ 2.7 µM)
Staphylococcus aureus [10]; Staphylococcus aureus
  MBC: 0.5 µg/mL (≈ 1.35 µM)
  MIC50: 0.25 µg/mL (≈ 0.675 µM)
  MIC90: 1 µg/mL (≈ 2.7 µM)
Haemophilus influenzae [11]
  MBC50: >32 µg/mL
  MBC90: >32 µg/mL
Haemophilus influenzae [11]; Haemophilus influenzae
  MBC: > 8 µg/mL
  MIC50: 8 µg/mL (≈ 21.6 µM)
  MIC90: 16 µg/mL (≈ 43.2 µM)
Streptococcus pneumoniae [12]
  MBC50: 1 µg/mL (≈ 2.7 µM)
  MBC90: 4 µg/mL (≈ 10.8 µM)
Streptococcus pneumoniae [12]; Streptococcus pneumoniae
  MBC: 0.5 µg/mL (≈ 1.35 µM)
  MIC50: 0.25 µg/mL (≈ 0.675 µM)
  MIC90: 0.25 µg/mL (≈ 0.675 µM)
Staphylococcus aureus [13]
  MBC50: 2 µg/mL (≈ 5.4 µM)
Staphylococcus aureus [13]; Staphylococcus aureus
  MIC50: 0.5 µg/mL (≈ 1.35 µM)
  MIC90: 1 µg/mL (≈ 2.7 µM)
Staphylococcus aureus [14]
  MBC: > 16 µg/mL
  MIC50: 4 µg/mL (≈ 10.8 µM)
  MIC90: 8 µg/mL (≈ 21.6 µM)
Listeria monocytogenes
  MIC: 0.25 µg/mL (≈ 0.675 µM)
  MIC50: 0.25 µg/mL (≈ 0.675 µM)
  MIC90: 0.25 µg/mL (≈ 0.675 µM)
Staphylococcus sp. [15]
  MIC50: 0.25 µg/mL (≈ 0.675 µM)
  MIC90: 0.5 µg/mL (≈ 1.35 µM)
Moraxella catarrhalis
  MIC50: 4 µg/mL (≈ 10.8 µM)
  MIC90: 4 µg/mL (≈ 10.8 µM)
Streptococcus sp
  MBC50: 1 µg/mL (≈ 2.7 µM)
  MBC90: 16 µg/mL (≈ 43.2 µM)
Streptococcus sp; Streptococcus sp.
  MBC: 0.5 µg/mL (≈ 1.35 µM)
  MIC50: 0.25 µg/mL (≈ 0.675 µM)
  MIC90: 0.25 µg/mL (≈ 0.675 µM)
Haemophilus influenzae [16]
  MBC50: >32 µg/mL
  MBC90: >32 µg/mL
Haemophilus influenzae [16]; Haemophilus influenzae
  MBC: > 16 µg/mL
  MIC50: 8 µg/mL (≈ 21.6 µM)
  MIC90: 16 µg/mL (≈ 43.2 µM)
Streptococcus pneumoniae [17]
  MBC: 1 µg/mL (≈ 2.7 µM)
  MIC50: 0.25 µg/mL (≈ 0.675 µM)
  MIC90: 0.25 µg/mL (≈ 0.675 µM)
Streptococcus pneumoniae [18]
  MBC50: 1 µg/mL (≈ 2.7 µM)
  MBC90: 1 µg/mL (≈ 2.7 µM)
Streptococcus pneumoniae [18]; Streptococcus pneumoniae
  MBC: 0.5 µg/mL (≈ 1.35 µM)
  MIC50: 0.25 µg/mL (≈ 0.675 µM)
  MIC90: 0.5 µg/mL (≈ 1.35 µM)
Enterococcus faecium [19]
  MBC50: 32 µg/mL (≈ 86.4 µM)
  MBC90: 32 µg/mL (≈ 86.4 µM)
Enterococcus faecium [19]; Enterococcus faecium
  MBC: 16 µg/mL (≈ 43.2 µM)
  MIC50: 0.5 µg/mL (≈ 1.35 µM)
  MIC90: 0.5 µg/mL (≈ 1.35 µM)
Streptococcus pneumoniae [20]
  MBC50: 1 µg/mL (≈ 2.7 µM)
  MBC90: 2 µg/mL (≈ 5.4 µM)
Streptococcus pneumoniae [20]; Streptococcus pneumoniae
  MBC: 0.5 µg/mL (≈ 1.35 µM)
  MIC50: 0.25 µg/mL (≈ 0.675 µM)
  MIC90: 0.25 µg/mL (≈ 0.675 µM)
Enterococcus sp.
  MBC50: 32 µg/mL (≈ 86.4 µM)
  MBC90: 32 µg/mL (≈ 86.4 µM)
Enterococcus sp.; Enterococcus sp.
  MBC: > 1 µg/mL
  MIC50: 0.5 µg/mL (≈ 1.35 µM)
  MIC90: 0.5 µg/mL (≈ 1.35 µM)
